What was measured:
[1] = molecular target: T1, cGAMP binding domain of wild-type (GRR) human STING, residues 155-341 (Homo sapiens, UniProt Q86WV6, H232R); assay: Increase of stability of STING protein against thermal denaturation, Differential Scanning Fluorimetry (DSF)
T1 construct: His-TEV-hSTING (WT); TEV protease cleavage site (N); made in house; host or cells: E. coli BL21 DE3
In short: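 3 µM His-tagged protein with 100 uM compound, 5×SYPRO Orange, 2% DMSO in 20 mM Tris, 150 mM NaCl, pH7.5; 15–95 °C ramp in 0.5 °C steps (15 s/cycle). Tm from Boltzmann fit of the dye melt curve, duplicates averaged, repeated if SD>1.5 °C; ΔTm = Tm with compound minus Tm of protein alone.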

human STING WT (R232) = molecular target: T2, human STING WT (R232) (Homo sapiens, UniProt Q86WV6, H232R); assay: Human STING HTRF binding assay (competitive, Cisbio 64BDSTGPEG)
T2 construct: purchased Cisbio 64BDSTGPEG
In short: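 Competitive HTRF: 6His-tagged human STING WT R232 binding domain (residues 138-379) with anti-6His Cryptate antibody and d2-labeled STING ligand, 180 min at room temperature, 1% DMSO, 8 concentrations from 10 μM or 1 μM top in ~1:5 steps. HTRF ratios were calibrated to a cGAMP standard curve and IC50 obtained by 4-parameter logistic fit.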

T1 sequence (Q86WV6 with tags, fused parts or gaps H232R): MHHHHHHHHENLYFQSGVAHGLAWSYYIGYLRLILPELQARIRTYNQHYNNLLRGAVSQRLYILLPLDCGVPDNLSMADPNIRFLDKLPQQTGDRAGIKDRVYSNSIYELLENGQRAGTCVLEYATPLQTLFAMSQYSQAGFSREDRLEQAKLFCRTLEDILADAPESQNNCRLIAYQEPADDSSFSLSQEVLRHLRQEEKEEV
T2 sequence (Q86WV6 138-379 H232R): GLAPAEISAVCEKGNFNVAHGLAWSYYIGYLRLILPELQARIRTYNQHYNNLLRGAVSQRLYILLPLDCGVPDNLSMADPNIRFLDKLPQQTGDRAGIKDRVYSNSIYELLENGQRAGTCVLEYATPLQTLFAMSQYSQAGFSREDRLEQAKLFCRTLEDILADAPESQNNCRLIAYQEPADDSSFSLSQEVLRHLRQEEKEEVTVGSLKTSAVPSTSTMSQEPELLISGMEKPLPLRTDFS

Row | DSF [1] [K] | IC50 (human STING WT (R232)) [nM] | SMILES
1 | 26 | 16.9 | Cc1nc2nn(C)cc2cc1-n1nc(-c2cccc3nn(C[C@H](O)c4ccc(F)c(F)c4)cc23)c(C(C)C)c1C [Example 44, (1R)-1-(3,4-difluorophenyl)-2-[4-(1-{2,6-dimethyl-2H-pyrazolo[3,4-b]pyridin-5-yl}-5-methyl-4-(propan-2-yl)-1H-pyrazol-3-yl)-2H-indazol-2-yl]ethan-1-ol]
2 | 27 | 18.1 | Cc1nc2nn(CCCCN3CCN(C)CC3)cc2cc1-n1nc(-c2cccc3nn(C[C@H](O)c4ccccc4)cc23)c(C(C)C)c1C [Example 45, (1R)-2-[4-(5-methyl-1-{6-methyl-2-[4-(4-methylpiperazin-1-yl)butyl]-2H-pyrazolo[3,4-b]pyridin-5-yl}-4-(propan-2-yl)-1H-pyrazol-3-yl)-2H-indazol-2-yl]-1-phenylethan-1-ol]
3 | 27 | 15.2 | Cc1nc2nn(C)cc2cc1-n1nc(-c2cccc3nn(C[C@H](O)c4ccc(F)cc4)cc23)c(C(C)C)c1C [Example 46, (1R)-2-[4-(1-{2,6-dimethyl-2H-pyrazolo[3,4-b]pyridin-5-yl}-5-methyl-4-(propan-2-yl)-1H-pyrazol-3-yl)-2H-indazol-2-yl]-1-(4-fluorophenyl)ethan-1-ol]
4 | 30 | 11.9 | Cc1c(C(C)C)c(-c2cccc3nn(C[C@H](O)c4ccccc4)cc23)nn1-c1cc2cn(C)nc2nc1C1CCOC1 (stereo partly drawn) [Example 47, (1R)-2-(4-{5-methyl-1-[2-methyl-6-(oxolan-3-yl)-2H-pyrazolo[3,4-b]pyridin-5-yl]-4-(propan-2-yl)-1H-pyrazol-3-yl}-2H-indazol-2-yl)-1-phenylethan-1-ol]
5 | 31 | 22.7 | CCCn1cc2cc(-c3nc(-c4cccc5nn(CC(F)(F)c6ccccc6)cc45)c(C4CC4)n3C)c(C3CC3)nc2n1 [Example 48, 4-(5-cyclopropyl-2-{6-cyclopropyl-2-propyl-2H-pyrazolo[3,4-b]pyridin-5-yl}-1-methyl-1H-imidazol-4-yl)-2-(2,2-difluoro-2-phenylethyl)-2H-indazole]
6 | 26 | 22.2 | Cc1nc2nn(CCCN3CCOCC3)cc2cc1-n1nc(-c2cccc3nn(C[C@H](F)c4ccccc4)cc23)c(C(C)C)c1C [Example 49, 2-[(2R)-2-fluoro-2-phenylethyl]-4-(5-methyl-1-{6-methyl-2-[3-(morpholin-4-yl)propyl]-2H-pyrazolo[3,4-b]pyridin-5-yl}-4-(propan-2-yl)-1H-pyrazol-3-yl)-2H-indazole]
7 | 26 | 16.3 | Cc1c(C(C)C)c(-c2cccc3nn(C[C@H](O)c4ccccc4)cc23)nn1-c1cc2cn(C)nc2[n+]([O-])c1C1CC1 [Example 50, 6-cyclopropyl-5-(3-{2-[(2R)-2-hydroxy-2-phenylethyl]-2H-indazol-4-yl}-5-methyl-4-(propan-2-yl)-1H-pyrazol-1-yl)-2-methyl-2H-pyrazolo[3,4-b]pyridin-7-ium-7-olate]
8 | 26 | 16.8 | Cc1c(C(C)C)c(-c2cccc3nn(C[C@H](O)c4ccccc4)cc23)nn1-c1cc2cn(C)nc2nc1C1(F)CC1 [Example 51, (1R)-2-(4-{1-[6-(1-fluorocyclopropyl)-2-methyl-2H-pyrazolo[3,4-b]pyridin-5-yl]-5-methyl-4-(propan-2-yl)-1H-pyrazol-3-yl}-2H-indazol-2-yl)-1-phenylethan-1-ol]
9 | 25 | 19.9 | CO[C@@H](Cn1cc2c(-c3nn(-c4cc5cn(C)nc5nc4C)c(C)c3C(C)C)cccc2n1)c1ccccc1 [Example 52, 4-(1-{2,6-dimethyl-2H-pyrazolo[3,4-b]pyridin-5-yl}-5-methyl-4-(propan-2-yl)-1H-pyrazol-3-yl)-2-[(2R)-2-methoxy-2-phenylethyl]-2H-indazole]
10 | 30 | 28.6 | Cc1c(C(C)C)c(-c2cccc3nn(C[C@H](O)c4ccccc4)cc23)nn1-c1cc2cn(C)nc2nc1C1CCC1 [Example 53, (1R)-2-[4-(1-{6-cyclobutyl-2-methyl-2H-pyrazolo[3,4-b]pyridin-5-yl}-5-methyl-4-(propan-2-yl)-1H-pyrazol-3-yl)-2H-indazol-2-yl]-1-phenylethan-1-ol]
11 | 28 | 86.9 | Cc1c(C(C)C)c(-c2cccc3nn(C[C@H](O)c4ccccc4)cc23)nn1-c1cc2cn(C)nc2nc1CC1CC1 [Example 54, (1R)-2-(4-{1-[6-(cyclopropylmethyl)-2-methyl-2H-pyrazolo[3,4-b]pyridin-5-yl]-5-methyl-4-(propan-2-yl)-1H-pyrazol-3-yl}-2H-indazol-2-yl)-1-phenylethan-1-ol]
12 | 29 | 3.7 | Cn1cc2cc(-c3nc(-c4cccc5nn(C[C@H](O)c6ccc(O)cc6)cc45)c(C4CC4)n3C)c(C3CC3)nc2n1 [Example 55, 4-[(1R)-2-[4-(5-cyclopropyl-2-{6-cyclopropyl-2-methyl-2H-pyrazolo[3,4-b]pyridin-5-yl}-1-methyl-1H-imidazol-4-yl)-2H-indazol-2-yl]-1-hydroxyethyl]phenol]
13 | 25 | 18.1 | Cc1nc2nn(CC3CC3)cc2cc1-n1nc(-c2cccc3nn(C[C@H](O)c4ccccc4)cc23)c(C(C)C)c1C [Example 56, (1R)-2-(4-{1-[2-(cyclopropylmethyl)-6-methyl-2H-pyrazolo[3,4-b]pyridin-5-yl]-5-methyl-4-(propan-2-yl)-1H-pyrazol-3-yl}-2H-indazol-2-yl)-1-phenylethan-1-ol]
14 | 27 | 24.9 | CC(C)c1c(-c2cccc3nn(C[C@H](O)c4ccccc4)cc23)nc(-c2cc3cn(C)nc3nc2C(F)(F)F)n1C [Example 57, (1R)-2-(4-{1-methyl-2-[2-methyl-6-(trifluoromethyl)-2H-pyrazolo[3,4-b]pyridin-5-yl]-5-(propan-2-yl)-1H-imidazol-4-yl}-2H-indazol-2-yl)-1-phenylethan-1-ol]
15 | 28 | 15.8 | COC(C)c1nc2nn(C)cc2cc1-n1nc(-c2cccc3nn(C[C@H](O)c4ccccc4)cc23)c(C(C)C)c1C (stereo partly drawn) [Example 58, (1R)-2-(4-{1-[6-(1-methoxyethyl)-2-methyl-2H-pyrazolo[3,4-b]pyridin-5-yl]-5-methyl-4-(propan-2-yl)-1H-pyrazol-3-yl}-2H-indazol-2-yl)-1-phenylethan-1-ol]
16 | 28 | 23.9 | CCCc1nc2nn(C)cc2cc1-n1nc(-c2cccc3nn(C[C@H](O)c4ccccc4)cc23)c(C(C)C)c1C [Example 60, (1R)-2-[4-(5-methyl-1-{2-methyl-6-propyl-2H-pyrazolo[3,4-b]pyridin-5-yl}-4-(propan-2-yl)-1H-pyrazol-3-yl)-2H-indazol-2-yl]-1-phenylethan-1-ol]
17 | 25 | 19.1 | Cc1nc2nn(Cc3ncnn3C)cc2cc1-n1nc(-c2cccc3nn(C[C@H](O)c4ccccc4)cc23)c(C(C)C)c1C [Example 62, (1R)-2-[4-(5-methyl-1-{6-methyl-2-[(1-methyl-1H-1,2,4-triazol-5-yl)methyl]-2H-pyrazolo[3,4-b]pyridin-5-yl}-4-(propan-2-yl)-1H-pyrazol-3-yl)-2H-indazol-2-yl]-1-phenylethan-1-ol]

Reference: patent US20260265244A1, “HETEROCYCLIC COMPOUNDS AS STING ANTAGONISTS” (Boehringer Ingelheim International GmbH, priority 2022, published 2026)
